Values after ≈ are worked out from the molar mass of the structure shown. Active and inactive are the calls of the source. The calls are words filed in the database; no cut-off is given here.
System: Vaccinia virus
Assay: Antiviral activity against Vaccinia virus infected in human skin fibroblast cells assessed as inhibition of virus-induced cytopathogenicity treated immediately after virus adsorption measured 2 to 3 days after virus infection
Type: functional
Conditions: Orthopoxvirus vaccinia

**Q.** `CCc1cn([C@@H]2O[C@H](CO)[C@@H](O)[C@@H]2O)c(=O)[nH]c1=O` was tested. Which MIC did it give?
**A.** The MIC was > 200 µg/mL.

**Q.** `Cc1cn([C@@H]2O[C@H](CO)[C@@H](O)[C@@H]2O)c(=O)[nH]c1=O` was tested. Which MIC did it give?
**A.** The MIC was 2 µg/mL (≈ 7.75 µM).

**Q.** With `Nc1ccn([C@@H]2O[C@H](CO)[C@@H](O)[C@@H]2O)c(=O)n1` [CYTARABINE] as the compound, how does the MIC read?
**A.** Its MIC is 0.02 µg/mL (≈ 0.0822 µM).

**Q.** Which MIC does the source give for `O=c1ccn([C@@H]2O[C@H](CO)[C@@H](O)[C@@H]2O)c(=O)[nH]1` [ARAURIDINE] here?
**A.** Its MIC is > 200 µg/mL.

**Q.** How did the MIC turn out when `CCc1cn([C@@H]2O[C@H](CO)[C@@H](O)[C@@H]2O)c(=O)nc1N` was run?
**A.** Its MIC is > 200 µg/mL.

System: Vaccinia virus
Assay: Antiviral activity against Vaccinia virus infected in human skin fibroblast cells assessed as inhibition of virus-induced cytopathogenicity at 200 ug/ml treated immediately after virus adsorption measured 2 to 3 days after virus infection
Type: functional, organism-based
Conditions: Orthopoxvirus vaccinia

**Q.** How did the inhibition turn out when `CCc1cn([C@H]2O[C@H](CO)[C@@H](O)[C@@H]2O)c(=O)nc1N` was run?
**A.** The inhibition was “inactive”.

**Q.** How did the inhibition turn out when `CCc1cn([C@H]2O[C@H](CO)[C@@H](O)[C@@H]2O)c(=O)[nH]c1=O` was run?
**A.** Its inhibition is “inactive”.

— ChEMBL document CHEMBL3227988, “Synthesis and antiviral activities of arabinofuranosyl-5-ethylpyrimidine nucleosides. Selective antiherpes activity of 1-(beta-D-arabinofuranosyl)-5-ethyluracil” (J Med Chem, 1979)
